In ChEMBL document CHEMBL1201862, “PubChem BioAssay data set” (2004):
Where “and” joins values, the source holds several entries; their conditions need not be identical. Equal values may be shown once.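 In this assay, cells in 96-well plates receive the compound at five concentrations for 48 hours. Endpoints are linearly interpolated between the surrounding concentrations. The concentration for 50% growth inhibition is given as GI50.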 Calls of active or inactive are those of the source. Cut-off read from the data, not from the text of the source: active = GI50 up to about 1.1 µM and inactive = higher.

Assays:
Assay in all cases: growth of human tumour cells (NCI), 48 h
HOP-62 = tested on: HOP-62
ACHN = tested on: ACHN
HCT-15 = tested on: HCT-15
SR = tested on: SR
HCC 2998 = tested on: HCC 2998
NCI-H460 = tested on: NCI-H460
SF-268 = tested on: SF-268
SNB-75 = tested on: SNB-75
IGROV-1 = tested on: IGROV-1
Hs-578T = tested on: Hs-578T
MCF7 = tested on: MCF7
OVCAR-5 = tested on: OVCAR-5
SF-539 = tested on: SF-539
A498 = tested on: A498
OVCAR-4 = tested on: OVCAR-4
SF-295 = tested on: SF-295
RXF 393 = tested on: RXF 393
LOX IMVI = tested on: LOX IMVI
MDA-MB-231 = tested on: MDA-MB-231
SNB-19 = tested on: SNB-19
M14 = tested on: M14
NCI/ADR-RES = tested on: NCI/ADR-RES
DU-145 = tested on: DU-145
SK-MEL-5 = tested on: SK-MEL-5
NCI-H226 = tested on: NCI-H226
EKVX = tested on: EKVX
A549 = tested on: A549
RPMI-8226 = tested on: RPMI-8226
786-0 = tested on: 786-0
T47D = tested on: T47D
KM12 = tested on: KM12
MDA-MB-435 = tested on: MDA-MB-435
SK-OV-3 = tested on: SK-OV-3
MOLT-4 = tested on: MOLT-4
HOP-92 = tested on: HOP-92
COLO 205 = tested on: COLO 205
UACC-62 = tested on: UACC-62
OVCAR-8 = tested on: OVCAR-8
SK-MEL-28 = tested on: SK-MEL-28
NCI-H23 = tested on: NCI-H23
UACC-257 = tested on: UACC-257
TK-10 = tested on: TK-10
HCT-116 = tested on: HCT-116
U-251 = tested on: U-251
CCRF-CEM = tested on: CCRF-CEM
SW-620 = tested on: SW-620
HL-60 = tested on: HL-60
HT-29 = tested on: HT-29
Malme-3M = tested on: Malme-3M
SN12C = tested on: SN12C
UO-31 = tested on: UO-31
PC-3 = tested on: PC-3
SK-MEL-2 = tested on: SK-MEL-2
NCI-H522 = tested on: NCI-H522
K562 = tested on: K562
OVCAR-3 = tested on: OVCAR-3

c1ccc(CN2CCC(Nc3ccccc3)(c3nnnn3Cc3ccccc3)CC2)cc1
GI50 (HOP-62): 45.7 µM (inactive) | GI50 (ACHN): 35 µM (inactive) | GI50 (HCT-15): 27.5 µM | GI50 (SR): 8.77 µM (inactive) | GI50 (HCC 2998): 3.01 µM (inactive) | GI50 (NCI-H460): 15.7 µM (inactive) | GI50 (SF-268): > 100 µM (inactive) | GI50 (SNB-75): 22.7 µM (inactive) | GI50 (IGROV-1): 28.1 µM (inactive) | GI50 (Hs-578T): 24.2 µM (inactive) | GI50 (MCF7): 22.4 µM (inactive) | GI50 (OVCAR-5): 22.5 µM (inactive) | GI50 (SF-539): 20.5 µM (inactive) | GI50 (A498): 17.2 µM (inactive) | GI50 (OVCAR-4): 29.6 µM (inactive) | GI50 (SF-295): 20.5 µM (inactive) | GI50 (RXF 393): 27.4 µM (inactive) | GI50 (LOX IMVI): 20.1 µM (inactive) | GI50 (MDA-MB-231): 27.2 µM (inactive) | GI50 (SNB-19): 27.3 µM (inactive) | GI50 (M14): 16.1 µM (inactive) | GI50 (NCI/ADR-RES): 24.5 µM (inactive) | GI50 (DU-145): 38.4 µM (inactive) | GI50 (SK-MEL-5): 13 µM (inactive) | GI50 (NCI-H226): 42.7 µM (inactive) | GI50 (EKVX): 23.8 µM (inactive) | GI50 (A549): 32.2 µM (inactive) | GI50 (RPMI-8226): 12.9 µM (inactive) | GI50 (786-0): 22.4 µM (inactive) | GI50 (T47D): 19.5 µM (inactive) | GI50 (KM12): 13.3 µM (inactive) | GI50 (MDA-MB-435): 32.9 µM (inactive) | GI50 (SK-OV-3): 70.1 µM (inactive) | GI50 (MOLT-4): 10.1 µM (inactive) | GI50 (HOP-92): 5.37 µM (inactive) | GI50 (COLO 205): 11.6 µM (inactive) | GI50 (UACC-62): 23.6 µM (inactive) | GI50 (OVCAR-8): 32.8 µM (inactive) | GI50 (SK-MEL-28): 17.2 µM (inactive) | GI50 (NCI-H23): 50 µM (inactive) | GI50 (UACC-257): 14.1 µM (inactive) | GI50 (TK-10): 29.2 µM (inactive) | GI50 (HCT-116): 20.1 µM (inactive) | GI50 (U-251): 22.6 µM (inactive) | GI50 (CCRF-CEM): 20 µM (inactive) | GI50 (SW-620): 22.2 µM (inactive) | GI50 (HL-60): 11.5 µM (inactive) | GI50 (HT-29): 11.6 µM (inactive) | GI50 (Malme-3M): 18.5 µM (inactive) | GI50 (SN12C): 39.7 µM (inactive) | GI50 (UO-31): 6.12 µM (inactive)

Cc1ncc([N+](=O)[O-])n1CC(O)Cn1ccnc1[N+](=O)[O-] (configuration not stated)
GI50 (HOP-62): > 100 µM (inactive) | GI50 (ACHN): > 100 µM (inactive) | GI50 (HCT-15): > 100 µM | GI50 (SR): > 100 µM (inactive) | GI50 (HCC 2998): > 100 µM (inactive) | GI50 (NCI-H460): > 100 µM (inactive) | GI50 (SF-268): > 100 µM (inactive) | GI50 (SNB-75): > 100 µM (inactive) | GI50 (Hs-578T): > 100 µM (inactive) | GI50 (MCF7): > 100 µM (inactive) | GI50 (OVCAR-5): > 100 µM (inactive) | GI50 (SF-539): > 100 µM (inactive) | GI50 (PC-3): > 100 µM (inactive) | GI50 (A498): > 100 µM (inactive) | GI50 (SF-295): > 100 µM (inactive) | GI50 (SK-MEL-5): > 100 µM (inactive) | GI50 (NCI-H226): > 100 µM (inactive) | GI50 (EKVX): > 100 µM (inactive) | GI50 (SK-MEL-2): > 100 µM (inactive) | GI50 (A549): > 100 µM (inactive) | GI50 (RPMI-8226): > 100 µM (inactive) | GI50 (NCI-H522): > 100 µM (inactive) | GI50 (K562): > 100 µM (inactive) | GI50 (786-0): > 100 µM (inactive) | GI50 (KM12): > 100 µM (inactive) | GI50 (OVCAR-3): > 100 µM (inactive) | GI50 (MOLT-4): > 100 µM (inactive) | GI50 (OVCAR-8): > 100 µM (inactive) | GI50 (SK-MEL-28): > 100 µM (inactive) | GI50 (NCI-H23): > 100 µM (inactive) | GI50 (UACC-257): > 100 µM (inactive) | GI50 (TK-10): > 100 µM (inactive) | GI50 (HCT-116): > 100 µM (inactive) | GI50 (U-251): > 100 µM (inactive) | GI50 (CCRF-CEM): > 100 µM (inactive) | GI50 (SW-620): > 100 µM (inactive) | GI50 (HL-60): > 100 µM (inactive) | GI50 (HT-29): > 100 µM (inactive) | GI50 (Malme-3M): > 100 µM (inactive) | GI50 (SN12C): > 100 µM (inactive)

NC(CN(O)N=O)C(=O)O (configuration not stated) [LALANOSINE]
GI50 (ACHN): 1.42 µM (inactive) and 1.82 µM (inactive) | GI50 (OVCAR-5): 3.73 µM (inactive) and 4.13 µM (inactive) | GI50 (SF-539): 8.63 µM (inactive) | GI50 (SF-295): 8.36 µM (inactive) and 8.63 µM (inactive) | GI50 (LOX IMVI): 412 nM (active) and 333 nM (active) | GI50 (MDA-MB-231): 87.9 µM (inactive) | GI50 (NCI/ADR-RES): 18.7 µM (inactive) | GI50 (DU-145): > 100 µM (inactive) | GI50 (SK-MEL-2): > 100 µM (inactive) and 70 µM (inactive) | GI50 (A549): 268 nM (active) and 204 nM (active) | GI50 (T47D): 87.9 µM (inactive) | GI50 (KM12): 304 nM (active) and 360 nM (active) | GI50 (MOLT-4): 40 µM (inactive) and 29.2 µM (inactive) | GI50 (OVCAR-8): 12.5 µM (inactive) and 23.8 µM (inactive) | GI50 (HL-60): 11.4 µM (inactive) | GI50 (HT-29): 10.1 µM (inactive) and 17.7 µM (inactive)
